In brackets after ≈: the same amount, converted by molar mass. Several values for one entry are separate records, joined by “and”; a condition that tells them apart may be missing. Equal entries are not always repeated. Where two headings read alike, the source gives them in different places.
What was measured:
[1] = Kinetic aqueous solubility by CAD; assay type: physicochemical; settings: kinetic from dmso stock
host Vero cell = experiment: Vero host cell toxicity in the intracellular T. cruzi assay; assay type: cell-based; set-up: key to Max Effect (Vero): % inhibition; 0% = DMSO control, 100% = 16 μM nifurtimox control; settings: for EC50 / IC50: Chlorocebus sabaeus; for EC50: Vero; for IC50: host Vero cell, read-out: Vero pIC50 (converted)
Procedure: (§1) T. cruzi intracellular potency and rate-of-kill assay (high content imaging) ^1
(§2) Silvio X10/7 T. cruzi trypomastigotes were incubated at 37°C 5% CO2 with 1.6×10^7 Vero cells overnight at MOI10 in MEM media supplemented with 10% foetal calf serum (FCS). Extracellular parasites were removed by aspirating cell culture supernatant, and washing Vero monolayer with 10 ml serum-free MEM three times. Vero cells were then harvested by trypsinization and dispensed at 2×10^3 per well (50 μl in MEM/ 1% FCS) into 384 well plates pre-stamped with compounds in DMSO using automated washer/ dispenser EL406 and liquid handling software (Biotek). Plates were then incubated at 37°C in 5% CO2 for 96 h. For rate-of-kill determination, plates were incubated for 24h, 48h, 72h and 96h.
(§3) Plates were subsequently fixed with 4% formaldehyde for 20 min, permeabilised and stained with 5 μgml^-1 Hoechst 33342/ 0.1% Triton/ PBS Thimerosal 20 min. Automated imaging was performed by an Operetta high content imaging system using 20x objective (PerkinElmer). Images were analysed with an algorithm generated in Columbus (PerkinElmer) to segment Vero cell nuclei, Vero cell cytoplasm and parasite nuclei/ kinetoplasts, reporting number of amastigotes per Vero cell, percent infected Vero cells and total number of Vero cells. Compound potencies against T. cruzi parasites were calculated in IDBS Activitybase using percent infected Vero cells and Vero toxicity curves generated using number of host cells. All data was normalised to percent inhibition based on the raw data values for the 100% effect control (16 μM nifurtimox) and the 0% effect control (DMSO) on each plate at each time point. Curve fitting was carried out using a four-parameter equation as previously described. ^2 For rate-of-kill experiments the percent infected cells at each compound concentration was plotted against time.

[2] = Mouse liver microsomal intrinsic clearance; assay type: in vitro ADME
[3] = ChromLogD pH7.4 (chromatographic hydrophobicity index), PFI, LLE; settings: for PFI: ChromLogDpH7.4 + no. aromatic rings; for chromatographic logD: pH 7.4
Excerpt: [23] Alongside PFI, LLE (ligand lipophilic efficiency, T. cruzi pIC50 - ChromLogDpH7.4) was also monitored to identify changes where the impact on potency was not driven by increasing lipophilicity.

[4] = test system: intracellular T. cruzi amastigotes; experiment: T. cruzi intracellular potency assay (high content imaging); assay type: cell-based, Trypanosoma cruzi; set-up: key to Max Effect (T. cruzi): % inhibition; 0% = DMSO control, 100% = 16 μM nifurtimox control; settings: for Emax: read-out: Max Effect (T. cruzi); for IC50: intracellular amastigotes in Vero cells, 96 h, mean of N ≥ 3, read-out: T. cruzi pIC50 (converted)
Procedure: as §1, §2, §3

[5] = Human liver microsomal intrinsic clearance; assay type: in vitro ADME
intracellular T. cruzi = experiment: T. cruzi washout assay; assay type: cell-based, Trypanosoma cruzi; settings: 25 x IC50 for 16 days, infected Vero cells
Procedure: For any hits identified and successfully triaged, the initial focus of hit-expansion is to identify compounds with a suitable profile to run in a washout assay.,[21] In this assay, intracellular T. cruzi are treated with high doses of compounds for an extended duration (25x IC50 for 8 – 16 days), followed by compound washout and assessment of parasite relapse over 60 days to assess ability to clear all parasites, including any persisters. […] Compound series with a profile equal to or better than benznidazole can then be progressed to an in vivo efficacy model of chronic Chagas disease with a high probability of success.
At this stage, we were keen to examine our options for progression into the T. cruzi washout assay, [12],[21] and decided to move forward with 2, 14 and 16 to give coverage across both chemotypes. […] After this dosing period, the compound was washed off the infected cells, and the host cell monolayer was monitored for egressed parasites. The first day egressed parasites were detected post washout was noted down as the relapse day. In this assay, posaconazole, which is known to be ineffective in the clinic, relapsed after 10 days and benznidazole, used as the bench-mark clinical compound, relapsed after 31 / 35 days (2 replicates). We were therefore looking for compounds that relapsed at an equivalent time to benznidazole, or later, to be considered worth pursuing further.
Intracellular T. cruzi washout assays were carried out with the Silvio X10/7 strain using the protocol previously described. ^1

Tc-CYP51 = Tc-CYP51 (Trypanosoma cruzi, UniProt Q7Z1V1); experiment: T. cruzi sterol 14α-demethylase (CYP51) enzyme assay; assay type: biochemical; settings: for Emax: read-out: Tc CYP51 Max Effect; for fold more potent against the parasites than against Tc-CYP51: urea series
Sequence of Tc-CYP51 (Q7Z1V1 whole entry): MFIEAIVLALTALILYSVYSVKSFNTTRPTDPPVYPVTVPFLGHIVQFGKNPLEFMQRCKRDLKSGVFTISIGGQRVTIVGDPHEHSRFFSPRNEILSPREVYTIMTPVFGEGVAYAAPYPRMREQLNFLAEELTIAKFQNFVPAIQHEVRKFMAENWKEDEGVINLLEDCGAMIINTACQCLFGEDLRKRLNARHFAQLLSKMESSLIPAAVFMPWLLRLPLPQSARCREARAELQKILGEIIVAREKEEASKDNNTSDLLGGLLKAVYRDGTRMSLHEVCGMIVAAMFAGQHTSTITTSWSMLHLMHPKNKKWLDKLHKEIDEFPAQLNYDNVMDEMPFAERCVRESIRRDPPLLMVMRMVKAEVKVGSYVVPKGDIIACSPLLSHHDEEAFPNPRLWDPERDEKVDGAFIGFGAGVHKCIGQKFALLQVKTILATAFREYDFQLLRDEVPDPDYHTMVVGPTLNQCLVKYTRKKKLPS
Procedure: T. cruzi sterol 14α-demethylase (CYP51) enzyme assay
Potency against T. cruzi CYP51 was determined using a previously described fluorescence assay. Average potency for compound 1 was determined with three experimental replicates. Potencies in Fig.3 are from single experimental replicates. ^5

T. cruzi trypomastigotes [6] = test system: T. cruzi trypomastigotes; set-up: method as in PMID 30001347; settings: cited from earlier work
T. cruzi = test system: T. cruzi; set-up: method as in PMID 24827034, PMID 29352704; settings: clinical trials; cited from earlier work
T. cruzi epimastigotes = experiment: T. cruzi oxygen consumption assay; assay type: cell-based; settings: Trypanosoma cruzi, read-out: T. cruzi oxygen consumption pIC50 (converted)
Procedure: T. cruzi oxygen consumption assay
Oxygen consumption was measured using T. cruzi epimastigotes and the MitoXpress Xtra Oxygen Consumption Assay (Agilent) as previously reported. ^6

T. cruzi proteasome = T. cruzi proteasome (Trypanosoma cruzi, UniProt V5BU39)
Procedure: T. cruzi proteasome enzyme assay
The pIC50 of compound 1 was measured in a T. cruzi proteasome assay (N = 2 experimental replicates, each with n = 3 technical replicates) as previously described, using a recombinantly expressed Δβ1Δβ2 mutant proteasome (measuring chymotrypsin site activity only). ^4

[7] = test system: intracellular T. cruzi amastigotes; experiment: Rate-of-kill assay against intracellular amastigotes; assay type: cell-based, Trypanosoma cruzi
Procedure: as §1, §2
Plates were subsequently fixed with 4% formaldehyde for 20 min, permeabilised and stained with 5 μgml^-1 Hoechst 33342/ 0.1% Triton/ PBS Thimerosal 20 min. […] Images were analysed with an algorithm generated in Columbus (PerkinElmer) to segment Vero cell nuclei, Vero cell cytoplasm and parasite nuclei/ kinetoplasts, reporting number of amastigotes per Vero cell, percent infected Vero cells and total number of Vero cells. Compound potencies against T. cruzi parasites were calculated in IDBS Activitybase using percent infected Vero cells and Vero toxicity curves generated using number of host cells. […]

Tc-MetRS = Tc-MetRS (Trypanosoma cruzi, UniProt Q4D6H2); experiment: T. cruzi aminoacyl tRNA synthetase enzyme assay (TcMetRS); assay type: biochemical
Sequence of Tc-MetRS (Q4D6H2 entry or part of it): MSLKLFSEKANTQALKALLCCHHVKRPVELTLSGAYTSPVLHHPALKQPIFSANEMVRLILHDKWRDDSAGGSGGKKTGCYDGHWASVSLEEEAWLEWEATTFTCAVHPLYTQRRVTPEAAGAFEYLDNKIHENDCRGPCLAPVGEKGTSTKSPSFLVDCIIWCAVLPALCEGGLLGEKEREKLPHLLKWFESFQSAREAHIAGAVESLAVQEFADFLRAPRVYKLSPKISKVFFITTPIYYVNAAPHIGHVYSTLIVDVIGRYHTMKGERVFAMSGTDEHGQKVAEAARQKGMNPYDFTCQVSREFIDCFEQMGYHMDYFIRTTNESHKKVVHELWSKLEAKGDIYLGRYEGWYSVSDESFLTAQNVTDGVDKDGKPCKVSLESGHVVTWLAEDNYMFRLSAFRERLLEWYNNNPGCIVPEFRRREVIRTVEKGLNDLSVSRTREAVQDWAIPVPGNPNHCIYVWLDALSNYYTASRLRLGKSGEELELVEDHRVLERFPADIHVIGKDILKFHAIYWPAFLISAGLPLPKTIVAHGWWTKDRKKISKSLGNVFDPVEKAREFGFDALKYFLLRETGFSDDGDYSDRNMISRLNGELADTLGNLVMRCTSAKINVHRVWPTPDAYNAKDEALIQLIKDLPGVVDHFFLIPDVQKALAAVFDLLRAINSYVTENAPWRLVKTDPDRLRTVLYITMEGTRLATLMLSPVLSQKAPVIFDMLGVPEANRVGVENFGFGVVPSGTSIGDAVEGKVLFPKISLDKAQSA
Procedure: T. cruzi aminoacyl tRNA synthetase enzyme assays
Assays were run for 2 hours.

Tc-HisRS = Tc-HisRS (Trypanosoma cruzi, UniProt Q4DA54); experiment: biochemical
Sequence of Tc-HisRS (Q4DA54 entry or part of it): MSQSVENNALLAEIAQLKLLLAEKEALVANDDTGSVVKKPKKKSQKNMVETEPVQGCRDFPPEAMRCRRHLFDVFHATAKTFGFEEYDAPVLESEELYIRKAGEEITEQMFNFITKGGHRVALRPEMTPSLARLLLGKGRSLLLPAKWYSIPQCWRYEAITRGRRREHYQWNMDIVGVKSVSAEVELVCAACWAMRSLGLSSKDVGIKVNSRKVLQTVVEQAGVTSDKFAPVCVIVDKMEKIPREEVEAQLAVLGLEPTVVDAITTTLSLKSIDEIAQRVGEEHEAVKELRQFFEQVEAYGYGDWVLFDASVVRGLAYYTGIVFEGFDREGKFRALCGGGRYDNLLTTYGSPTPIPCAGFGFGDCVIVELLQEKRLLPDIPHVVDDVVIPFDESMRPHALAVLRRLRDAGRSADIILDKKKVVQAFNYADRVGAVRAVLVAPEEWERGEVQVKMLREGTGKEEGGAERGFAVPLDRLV
Procedure: TcHisRS assay wells contained TcHisRS assay buffer (30 mM Tris; pH 8, 140 mM NaCl, 40 mM MgCl2, 30 mM KCl, 0.01% (v/v) Brij and 1 mM DTT) plus 50 nM TcHisRS, 8 μM ATP, 5 μM L-histidine and 1 U/mL pyrophosphatase. Assays were run for 2 hours.

T. cruzi trypomastigotes [8] = experiment: T. cruzi trypomastigote assay; assay type: cell-based, Trypanosoma cruzi
Procedure: T. cruzi trypomastigote assay
Trypomastigote assays were carried out with T. cruzi Silvio X10/7 trypomastigotes using the protocol previously described. ^1

[9] = Trypanosoma cruzi, individual replicate
[10] = kinetic, CAD, read-out: Aqueous solubility
[11] = individual replicate, read-out: Tc CYP51 pIC50 (converted)

Compound: COc1ccc(CN2C(=O)C(N)C(=O)N(c3ccc(OC)cc3)c3ccccc32)cc1 (stereo not drawn) [Compound 16, 3-amino-1-(4-methoxybenzyl)-5-(4-methoxyphenyl)-1,5-dihydro-2H-benzo[b][1,4]diazepine-2,4(3H)-dione]
- solubility [1]: > 270 µM
- EC50 (host Vero cell; individual replicate): > 50.1 µM
- IC50 (host Vero cell): > 50.1 µM
- Max Effect (Vero) (host Vero cell; individual replicate): 21 and 44 and 30 and 5.55
- MLM CLi ([2]; mouse, microsomes): 7.6 mL/min/g
- PFI [3]: 7.2
- chromatographic logD [3]: 4.2
- Emax [4, 9]: 86%
- EC50 ([4]; Trypanosoma cruzi, individual replicate, read-out: pEC50 (T. cruzi) (converted)): 0.316 µM
- IC50 ([4]; Trypanosoma cruzi): 0.316 µM
- Hill slope (T. cruzi) ([4]; individual replicate): 3.7 and 4.5 and 5.7 and 13.7
- Max Effect (T. cruzi) ([4]; individual replicate): 81 and 84 and 91
- pEC50 (T. cruzi) ([4]; individual replicate): 6.6
- HLM CLi ([5]; human, microsomes): <0.4 mL/min/g
- relapse day post washout (intracellular T. cruzi): 6 days

Compound: COc1ccc(NC(=O)NC2C(=O)Nc3ccccc3N(c3ccccc3)C2=O)cc1 (stereo not drawn) [Compound 2, 1-(2,4-dioxo-1-phenyl-2,3,4,5-tetrahydro-1H-benzo[b][1,4]diazepin-3-yl)-3-(4-methoxyphenyl)urea]
- solubility [1, 10]: 64 µM (≈ 26.7 µg/mL)
- EC50 (host Vero cell; individual replicate): > 50.1 µM
- IC50 (host Vero cell): > 50.1 µM
- Max Effect (Vero) (host Vero cell; individual replicate): 26 and 22 and 25 and -6 and 27 and 29 and 1.42 and 36
- MLM CLi ([2]; mouse liver microsomes): <0.5 mL/min/g
- PFI [3]: 7.0
- chromatographic logD [3]: 4
- Emax [4, 9]: 89%
- IC50 ([4]; Trypanosoma cruzi): 1.26 µM
- Hill slope (T. cruzi) ([4]; individual replicate): 2.1 and 3.4 and 3.0 and 9.3 and 1.5 and 2.5 and 0.659
- Max Effect (T. cruzi) ([4]; individual replicate): 99 and 83 and 84 and 94 and 93 and 92 and 88
- pEC50 (T. cruzi) ([4]; individual replicate): 5.8 and 5.7 and 6.3 and 5.9
- Tc CYP51 Hill (Tc-CYP51; individual replicate): 1.1
- Emax (Tc-CYP51; individual replicate): 95%
- IC50 (Tc-CYP51; [11]): 7.94 µM
- fold more potent against the parasites than against Tc-CYP51 (Tc-CYP51): 10 fold
- HLM CLi ([5]; human liver microsomes): <0.4 mL/min/g
- relapse day post washout (intracellular T. cruzi): 10 days

Compound: CC1CS(=O)(=O)CCN1/N=C/c1ccc([N+](=O)[O-])o1 (stereo not drawn) [nifurtimox]
- activity against trypomastigotes (T. cruzi trypomastigotes [6]): good activity

Compound: C[C@@H](c1nc(-c2ccc(C#N)cc2)cs1)[C@@](Cn1cncn1)(OCOP(=O)(O)O)c1ccc(F)cc1F [fosravuconazole]
- treatment failures in patients (T. cruzi): 70 – 90%

Compound: Cc1ccc(NC(=O)NC2C(=O)Nc3ccccc3N(c3ccccc3)C2=O)cc1 (stereo not drawn) [Compound 1, 1-(2,4-dioxo-1-phenyl-2,3,4,5-tetrahydro-1H-benzo[b][1,4]diazepin-3-yl)-3-(p-tolyl)urea]
- solubility [1, 10]: 35 µM (≈ 14 µg/mL)
- EC50 (host Vero cell; individual replicate): > 50.1 µM
- IC50 (host Vero cell): > 50.1 µM
- Max Effect (Vero) (host Vero cell; individual replicate): 13 and 1.41 and 11 and 15 and 2.25 and -0.282
- MLM CLi ([2]; mouse liver microsomes): 0.8 mL/min/g
- PFI [3]: 7.6
- chromatographic logD [3]: 4.6
- IC50 (T. cruzi epimastigotes): > 50.1 µM
- Tc Proteasome Hill (T. cruzi proteasome; individual replicate): 1.1 and 0.9
- Tc Proteasome Max Effect (T. cruzi proteasome; individual replicate): 62 and 68
- Tc Proteasome pIC50 (T. cruzi proteasome; individual replicate): 4.0 and 4.2
- Tc-proteasome pIC50 (T. cruzi proteasome; Δβ1Δβ2 mutant proteasome, chymotrypsin site): 4.1
- Emax [4, 9]: 84%
- IC50 ([4]; Trypanosoma cruzi): 1 µM
- Hill slope (T. cruzi) ([4]; individual replicate): 2.7 and 4.5 and 6.2 and 2.8 and 1.2 and 2.0 and 4.2
- Max Effect (T. cruzi) ([4]; individual replicate): 87 and 88 and 90 and 83
- pEC50 (T. cruzi) ([4]; individual replicate): 5.8 and 6.2 and 6.1 and 6.0
- Rate-of-Kill: cidal activity within [7]: Cidal activity within 96 hours ^f
- IC50 (Tc-MetRS): > 100 µM
- IC50 (Tc-HisRS): > 100 µM
- IC50 (Tc-CYP51; average of three experimental replicates, read-out: Tc-CYP51 pIC50 (converted)): 15.8 µM
- Tc CYP51 Hill (Tc-CYP51; individual replicate): 1.3 and 1.1 and 1.4
- Tc CYP51 Max Effect (Tc-CYP51; individual replicate): 83 and 84
- Emax (Tc-CYP51; individual replicate): 85%
- IC50 (Tc-CYP51; [11]): 6.31 µM and 25.1 µM
- fold more potent against the parasites than against Tc-CYP51 (Tc-CYP51): 10 fold
- HLM CLi ([5]; human liver microsomes): <0.4 mL/min/g
- Emax (T. cruzi trypomastigotes [8]; Trypanosoma cruzi, individual replicate, read-out: Tc-Trypo Max Effect): 77%
- IC50 (T. cruzi trypomastigotes [8]; Trypanosoma cruzi, read-out: T. cruzi trypomastigote pIC50 (converted)): 0.251 µM
- Tc-Trypo Hill (T. cruzi trypomastigotes [8]; individual replicate): 0.9 and 1.4 and 1.2 and 1.3
- Tc-Trypo Max Effect (T. cruzi trypomastigotes [8]; individual replicate): 79
- Tc-Trypo pEC50 (T. cruzi trypomastigotes [8]; individual replicate): 7.2 and 7.0 and 6.3 and 6.4

Compound: O=C(Cn1ccnc1[N+](=O)[O-])NCc1ccccc1 [benznidazole, reference compound]
- activity against trypomastigotes (T. cruzi trypomastigotes [6]): good activity
- relapse day post washout (intracellular T. cruzi): 31 days and 35 days

Compound: CC(C)N(C(=O)CN1C(=O)C(N)C(=O)N(c2ccccc2)c2ccccc21)c1ccccc1 (racemic) [Compound 14, 2-(3-amino-2,4-dioxo-5-phenyl-2,3,4,5-tetrahydro-1H-benzo[b][1,4]diazepin-1-yl)-N-isopropyl-N-phenylacetamide]
- solubility [1]: > 500 µM
- EC50 (host Vero cell; individual replicate): > 50.1 µM
- IC50 (host Vero cell): > 50.1 µM
- Max Effect (Vero) (host Vero cell; individual replicate): -6.63 and 8 and -0.0425 and 13 and 41 and 1.19 and 11
- pEC50 (Vero) (host Vero cell; individual replicate): < 4.3
- MLM CLi ([2]; mouse, microsomes): 3.4 mL/min/g
- PFI [3]: 8.0
- chromatographic logD [3]: 5
- Emax [4, 9]: 89%
- IC50 ([4]; Trypanosoma cruzi): 0.2 µM
- Hill slope (T. cruzi) ([4]; individual replicate): 4.0 and 12.9 and 3.7 and 29.0 and 4.4 and 2.2 and 5.2
- Max Effect (T. cruzi) ([4]; individual replicate): 87 and 86 and 88 and 93 and 92 and 82
- pEC50 (T. cruzi) ([4]; individual replicate): 6.6 and 6.8 and 7.0 and 6.7
- HLM CLi ([5]; human, microsomes): <0.4 mL/min/g
- relapse day post washout (intracellular T. cruzi): 6 days

Compound: CC[C@@H]([C@H](C)O)n1ncn(-c2ccc(N3CCN(c4ccc(OC[C@@H]5CO[C@@](Cn6cncn6)(c6ccc(F)cc6F)C5)cc4)CC3)cc2)c1=O [posaconazole]
- activity against trypomastigotes (T. cruzi trypomastigotes [6]): only very weakly active
- treatment failures in patients (T. cruzi): 70 – 90%
- relapse day post washout (intracellular T. cruzi): 10 days
